In patent US7351692B2, “Method and composition for potentiating the antipyretic action of a nonopioid analgesic” (The Board of Trustees of the University of Illinois, priority 2002, dated 2008):
Non-standard residues stand in square brackets, D forms with d. Residues, ends and D or L forms follow the SMILES beside them.

Key:
ETA receptor = biological target: T1, ETA receptor (Rattus norvegicus, UniProt P26684); settings: cited from earlier work
T1 construct: host or cells: whole animal, central (intracerebroventricular) administration
T1 sequence (P26684 21-426): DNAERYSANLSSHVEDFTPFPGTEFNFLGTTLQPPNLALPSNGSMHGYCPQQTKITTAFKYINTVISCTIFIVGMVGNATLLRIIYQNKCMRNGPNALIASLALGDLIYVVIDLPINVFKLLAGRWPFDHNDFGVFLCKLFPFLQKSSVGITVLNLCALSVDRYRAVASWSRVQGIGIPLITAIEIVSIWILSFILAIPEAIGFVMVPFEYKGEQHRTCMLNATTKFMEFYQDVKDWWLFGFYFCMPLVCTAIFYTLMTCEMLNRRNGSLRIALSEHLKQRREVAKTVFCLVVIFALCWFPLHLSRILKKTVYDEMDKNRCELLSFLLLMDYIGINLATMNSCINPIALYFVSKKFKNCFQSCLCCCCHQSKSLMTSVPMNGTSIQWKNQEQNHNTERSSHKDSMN

[1] = Measurement of body temperature (colonic temperature, telethermometer); type: in vivo; settings: for change in body temperature, drug alone: acetaminophen 300 mg/kg s.c. or BQ123 3 μg i.c.v., over 360 minutes
Procedure: (§1) Male Swiss-Webster mice weighing 25 to 30 grams (Harlan, Indianapolis, Ind.) were housed four per cage in a room having a controlled ambient temperature (23±1° C.), humidity (50±10%), and twelve-hour light/dark cycle (6:00 a.m. to 6:00 p.m.). Food and water were available ad libitum. The experiments were-performed after the mice were acclimated to this environment for at least four days.
(§2) For i.c.v. administration of the endothelin antagonist BQ123, a mouse was grasped firmly by the loose skin behind the head and the skin was pulled taut. The site of injection was 2 mm from either side of the midline drawn through the anterior base of the ears. A 27 gauge sterile hypodermic needle attached to a 10 μL sterile Hamilton syringe was inserted perpendicularly through the skull into the brain, and vehicle (sterile saline) or BQ123 was delivered to the ventricle of the mouse brain (see T. J. Haley et al., Brit. J. Pharmacol., 12(12), (1957)). BQ123 (3 μg) or vehicle was administered i.c.v. and volume of drug injection was 5 μL. Vehicle or BQ123 pretreatment was performed 30 minutes prior to administration of acetaminophen (300 mg/kg s.c.).
(§3) The mice were divided into the following four groups (N=5 in each group): group I (P+V) received vehicle (V) (saline 5 μl, i.c.v.) and placebo (P) (vehicle 100 μl/kg, s.c.); group 2 (P+BQ) received BQ123 (BQ) (3 μg. i.c.v. in a volume of 5 μl of saline) and placebo (P) (vehicle 100 μl/kg, s.c.); group 3 (A+V) received vehicle (V) (saline 5 μl, i.c.v.) and acetaminophen (A) (300 mg/kg, s.c. in a volume of 100 μl/kg); and group 4 (A+BQ) received BQ123 (BQ) (3 μg, i.c.v. in a volume of 5 μl) and acetaminophen (A) (300 mg/kg, s.c. in a volume of 100 μl/kg). Vehicle or BQ123 pretreatment was performed 30 minutes prior to administration of acetaminophen (FIG. 1).
The change in body temperature in response to acetaminophen (300 mg/kg) was determined (Bhargava, 1997). The colonic temperature of each mouse was recorded before and at various times after the injection of acetaminophen over a period of 360 minutes using a telethermometer. Body temperature data was expressed as mean±SEM.

[2] = Measurement of tail-flick latency (thermal stimulation); type: in vivo; settings: mice; for effect on tail flick latency (analgesia), drug alone: acetaminophen 300 mg/kg s.c. or BQ123 3 μg i.c.v.
Procedure: as §1, §2, §3
An analgesic response was determined by the tail flick method (C. Advocat et al., Brain Ref., 55(2), pp. 251-258 (1991); H. N. Bhargava, General Pharmacology, 28(1), pp. 61-64 (1997)). The tail flick latencies to thermal stimulation (focused light) were determined before and 30, 60, 90, 120, 180, 210, 240, 270, 300, and 360 minutes after injection of acetaminophen. The basal tail flick latency was about 2 seconds. A thermal stimulation cutoff time of 10 seconds was used to prevent damage to the tail of the animal. The analgesic response in each mouse was expressed as mean±SEM.

[3] = Body weight of mice before drug and at end of experiment; type: in vivo; settings: before drug vs 7 hours after acetaminophen, acetaminophen 300 mg/kg s.c., BQ123 3 μg i.c.v.
Procedure: as §1
as §2, with “Vehicle or BQ123 pretreatment was performed 30 minutes prior to administration of acetaminophen (300 mg/kg s.c.).” left out
The body weight of all mice was measured, and no change in body weight between various groups of mice was observed (FIG. 2). Body weight was measured before administration of any drug and at the end of the experiment (i.e., 7 hours after the administration of acetaminophen).

[4] = acetaminophen 3900 mg/d; afebrile patients with acute stroke; cited from earlier work
prostaglandin synthesis = settings: in vivo; cited from earlier work
[5] = daily dose of 6000 mg acetaminophen, suppositories, five days; cited from earlier work
[6] = 4000 mg acetaminophen daily (n=20); placebo group 36.4%; p=0.014; cited from earlier work
COX-2 = biological target: T2, COX-2 (Homo sapiens, UniProt P35354); settings: in vitro; cited from earlier work
T2 sequence (P35354 18-604): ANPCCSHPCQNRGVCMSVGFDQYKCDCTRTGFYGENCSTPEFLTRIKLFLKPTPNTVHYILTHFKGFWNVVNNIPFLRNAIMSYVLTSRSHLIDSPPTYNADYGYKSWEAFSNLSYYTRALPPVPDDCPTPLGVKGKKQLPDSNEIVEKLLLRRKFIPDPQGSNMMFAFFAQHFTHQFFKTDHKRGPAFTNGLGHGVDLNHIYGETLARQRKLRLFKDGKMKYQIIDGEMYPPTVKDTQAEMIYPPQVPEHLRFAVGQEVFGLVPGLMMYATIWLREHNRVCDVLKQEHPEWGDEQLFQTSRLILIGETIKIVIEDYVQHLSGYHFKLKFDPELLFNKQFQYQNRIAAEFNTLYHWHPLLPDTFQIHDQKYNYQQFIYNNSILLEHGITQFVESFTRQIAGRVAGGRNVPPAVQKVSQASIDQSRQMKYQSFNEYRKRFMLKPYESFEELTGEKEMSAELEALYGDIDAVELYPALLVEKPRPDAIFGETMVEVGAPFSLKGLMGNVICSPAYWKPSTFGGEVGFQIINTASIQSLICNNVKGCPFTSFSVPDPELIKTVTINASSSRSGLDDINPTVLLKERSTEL

COX-1 = COX-1 (Homo sapiens, UniProt P23219); settings: in vitro; cited from earlier work
Sequence of COX-1 (P23219 24-599): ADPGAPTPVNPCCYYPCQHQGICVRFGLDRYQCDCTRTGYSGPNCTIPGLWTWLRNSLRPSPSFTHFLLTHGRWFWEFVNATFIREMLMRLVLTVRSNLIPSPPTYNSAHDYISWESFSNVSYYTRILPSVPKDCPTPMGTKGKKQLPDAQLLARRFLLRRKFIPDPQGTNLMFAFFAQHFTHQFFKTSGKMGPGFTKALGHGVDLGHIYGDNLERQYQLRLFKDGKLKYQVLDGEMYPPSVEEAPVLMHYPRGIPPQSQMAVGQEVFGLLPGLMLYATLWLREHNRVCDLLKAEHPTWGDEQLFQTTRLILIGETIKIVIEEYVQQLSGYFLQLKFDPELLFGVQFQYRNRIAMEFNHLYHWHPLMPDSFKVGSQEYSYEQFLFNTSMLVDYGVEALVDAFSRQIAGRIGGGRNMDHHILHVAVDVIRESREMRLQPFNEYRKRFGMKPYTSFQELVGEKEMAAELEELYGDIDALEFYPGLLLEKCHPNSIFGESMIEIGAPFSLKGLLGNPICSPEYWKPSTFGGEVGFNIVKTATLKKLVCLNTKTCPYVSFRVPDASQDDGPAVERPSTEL

[7] = BQ123 3 μg i.c.v. 30 minutes prior to acetaminophen 300 mg/kg s.c.

| Compound | effect on BP and HR per se (ETA receptor; administered in the lateral cerebral ventricle) | effect on clonidine induced hypotension and bradycardia (ETA receptor; pretreatment) | duration of hypothermic effect of acetaminophen in BQ123 pretreated mice [1, 7] | effect of BQ123 on hypothermic effect of acetaminophen ([1]; mice, BQ123 3 μg i.c.v. 30 minutes prior to acetaminophen 300 mg/kg s.c.) | change in body temperature, drug alone ([1]; mice) | effect of BQ123 on analgesic effect of acetaminophen [2, 7] | effect on tail flick latency (analgesia), drug alone ([2]; control about 2 seconds) | acute effect on body weight [3] | duration of hypothermia after acetaminophen ([1]; mice, acetaminophen 300 mg/kg s.c., vehicle pretreatment) | tail flick latency reached ([2]; acetaminophen 300 mg/kg s.c., cutoff time 10 seconds, control about 2 seconds) | duration of significant increase in tail flick latencies ([2]; after acetaminophen 300 mg/kg s.c.) | core body temperature (CBT) [4] | reduction of prostaglandin synthesis (prostaglandin synthesis) | body temperature shortly after ischemic stroke [5] | patients with fever of greater than 37.5° C. [6] | inhibition of COX-2 (COX-2) | inhibition of COX-1 (COX-1) |
| --- | --- | --- | --- | --- | --- | --- | --- | --- | --- | --- | --- | --- | --- | --- | --- | --- | --- |
| Cc1noc(NS(=O)(=O)c2cccc3c(N(C)C)cccc23)c1C [BMS-182874] | did not affect BP and HR per se | significantly blocked |  |  |  |  |  |  |  |  |  |  |  |  |  |  |  |
| CC(C)C[C@@H]1NC(=O)[C@@H](C(C)C)NC(=O)[C@@H]2CCCN2C(=O)[C@@H](CC(=O)O)NC(=O)[C@@H](Cc2c[nH]c3ccccc23)NC1=O [BQ123, cyclo (-D-Trp-D-Asp-Pro-D-Val-Leu-)] (cyclo(L[dW][dD]P[dV])) |  |  | more than six | significantly potentiated | did not produce any significant change in body temperature | not affected | did not produce any significant effect on tail flick latency | neither acetaminophen nor BQ123 produced any acute effect on body weight |  |  |  |  |  |  |  |  |  |
| CC(=O)Nc1ccc(O)cc1 [acetaminophen] |  |  |  |  | produced a significant hypothermia |  | produced significant analgesia |  | about three | more than 10 seconds | three | small reduction in CBT | markedly | small, but potentially beneficial, decrease in body temperature | 5.0% | weakly | weakly |
